# From paper PMC10689823, “Discovery of a Drug-like, Natural Product-Inspired DCAF11 Ligand Chemotype” (Nature Communications, 2023)
# Values joined by “and” are separate entries in the source; they are usually repeats but may differ in a detail not shown here. Identical values can stand only once.
# Legend:
# Assay type in all cases: cell-based
# Jurkat cells = assay: Cell viability assay (CellTiter-Glo) in Jurkat cells; conditions: for GI50: Homo sapiens; for GI50 / Relative cell viability (%): Jurkat cells, 72 h; for Relative cell viability (%): Fig. 4k; for Cell viability (%) relative to DMSO: individual replicates, Supplementary Fig. 7g
# Method: (§1) Jurkat cells (3 × 10^3) and Hep G2 cells (3.5 × 10^3) were seeded in 96-well plates in 100 μL culture medium. Cells were treated with compounds dissolved in 50 μl medium at the indicated concentration for 72 h, at the same time, one plate of cells without compounds treatment was used for the cell count at time zero. After adding 40 μl of CellTiter-Glo® reagent (Promega, G7571) to each well for 10 min at room temperature, the luminescence was measured on a Spark® Multimode Microplate Reader (Tecan). The data was analyzed by the GraphPad Prism 9.0.
# [1] = as above; conditions: human, Jurkat cells; for viability at 72 h, 10 nmol/L: concentration 10 nmol/L; for viability at 72 h, 100 nmol/L: concentration 100 nmol/L; for viability at 72 h, 300 nmol/L: concentration 300 nmol/L; for viability at 72 h, 1000 nmol/L: concentration 1000 nmol/L; for viability at 72 h, 3000 nmol/L: concentration 3000 nmol/L; for viability at 72 h, 10000 nmol/L: concentration 10000 nmol/L; for viability at 72 h, 0.01 µM: 10 nM; for viability at 72 h, 0.1 µM: 100 nM; for viability at 72 h, 1 µM: 1000 nM; for viability at 72 h, 3 µM: 3000 nM
# Method: as §1
# caspase-3/7 activity = assay: Caspase-3/7 Activity Assay in Jurkat cells; conditions: 18 h, Fig. 4l
# Method: Jurkat cells (3 × 10^3) were seeded in 96-well plates in 25 μl culture medium. Cells were treated with compounds dissolved in 25 μl medium at the indicated concentration for 18 h. After adding 50 μl of Caspase-Glo® 3/7 Reagent (Promega, G8091) to each well for 30 min at room temperature, the luminescence was measured on a Spark® Multimode Microplate Reader (Tecan). The data was analyzed by the GraphPad Prism 9.0.
# BRD2 [2] = biological target: BRD2 (Homo sapiens, UniProt P25440); assay: BRD2 levels by Western blot in KBM7 cells (WT, DCAF11 knockout, DDB1 knockout); design: endogenous in cells; host or cells: KBM7 (WT, DCAF11 KO, DDB1 KO); conditions: 4 h
# Method: Cells were washed with PBS and lysed in lysis buffer (50 mM Tris-HCl, pH 7.4, 150 mM NaCl, 1% Triton X-100, 1% sodium deoxycholate, 0.1% SDS) with complete protease inhibitor cocktail (Roche, 11836170001) for 30 min on ice. For Ramos cells, cell pellets were lysed in lysis buffer (50 mM Tris-HCl, pH 8, 150 mM NaCl, 1% NP-40, 0.5% sodium deoxycholate) with complete protease inhibitor cocktail. After centrifugation at 16,000 x g, the supernatant was transferred into a new tube and the protein concentration was determined by DC protein assay (BIO-RAD, 5000116). Proteins were separated by SDS-PAGE and transferred to a PVDF membrane (Thermo scientific, 0.45 μm, 88518). For PDEδ, BRD2, GAPDH, BRD4, Vinculin and BTK, the membranes were blocked with Intercept® Blocking Buffer (LI-COR Biosciences, 927-70001) at room temperature for 1 h. The primary antibodies for these proteins were diluted with Intercept® Blocking Buffer (1:500 for PDEδ, 1:3000 for Vinculin, and 1:1000 for other proteins) and incubated with the membranes overnight at 4 °C. Membranes were washed with PBS + 0.1% Tween 20 (PBS-T) five times and incubated with secondary antibodies conjugated to IRDye® Infrared Fluorescent Dyes (1:5000, LI-COR Biosciences) at room temperature for 1 h with protection from light. After washing the membrane, signals were visualized using the ChemiDoc MP Imaging System (BIO-RAD Laboratories). For detection of LC3B, BRD3, BLK, DCAF11, DDB1 RBX1, FIP200, V5- and FLAG-Tag the membranes were blocked with 5% milk in PBS-T at room temperature for 1 h. The primary antibodies for these proteins were diluted in 5% milk in PBS-T buffer (1:200 for BRD3, 1:1000 for other proteins) and incubated with the membranes overnight at 4 °C. Membranes were washed with PBS-T five times and incubated with HRP secondary antibodies (1:1500) at room temperature for 1 h. After washing the membrane, protein detection was performed using Western blotting detection reagent (Thermo Scientific, 34095) and the ChemiDoc MP Imaging System (BIO-RAD). Relative band intensities were quantified using Image Lab (BIO-RAD).
# DCAF11- or FIP200 (RB1CC1)-targeting sgRNAs were lentivirally packaged using PEI transfection of Lenti-X cells. The viral supernatant was harvested after 72 h, cleared of cellular debris by filtration through a 0.45-µm PES filter and stored in aliquots at −80 °C. The appropriate amount of viral supernatant was transduced into KBM7 cells (1 × 10^6 cells/mL) via spinfection (2000 rpm, 1 h, 37 °C) with polybrene (8 µg/mL). Two days post transduction, the cells were selected with puromycin (1 µg/mL) for a total of 5 days, after which the knockout pools were validated via western blotting.
# BRD2 [3] = assay: In-Cell Western for BRD2 levels in Hep G2 cells; conditions: Hep G2 cells; 4 h
# Method: Hep G2 cells were seeded in 96-well plates and incubated for 24 h. Compounds were added for the indicated time at the indicated concentration. Cells were then washed once with PBS and fixed with 4% paraformaldehyde for 30 min at room temperature. The fixed cells were permeabilized with 0.5 % Triton-X100 for 15 min followed by block with Intercept® Blocking Buffer (LI-COR Biosciences, 927-70001) for 1 h at room temperature. Primary antibodies for BRD2 (1:800) and Vinculin (1:2000) were diluted with LI-COR buffer and incubated with the cells at 4 °C overnight. Cells were washed with PBS-T, and the secondary antibodies conjugated to IRDye (1:1000, LI-COR Biosciences) were added to the cells for 1 h at room temperature. After washing the cells, the signal was recorded with the Odyssey® CLx Infrared Imaging System (LI-COR Biosciences) and the protein levels were analyzed by Image Studio (LI-COR Biosciences). BRD2 protein levels were normalized to the levels of reference protein vinculin.
# [4] = individual replicates, Supplementary Fig. 7g, read-out: Cell viability (%) relative to DMSO
# [5] = 72 h, Fig. 4k, read-out: Relative cell viability (%)
# BRD2 (Homo sapiens, UniProt P25440), sequence (P25440 whole entry): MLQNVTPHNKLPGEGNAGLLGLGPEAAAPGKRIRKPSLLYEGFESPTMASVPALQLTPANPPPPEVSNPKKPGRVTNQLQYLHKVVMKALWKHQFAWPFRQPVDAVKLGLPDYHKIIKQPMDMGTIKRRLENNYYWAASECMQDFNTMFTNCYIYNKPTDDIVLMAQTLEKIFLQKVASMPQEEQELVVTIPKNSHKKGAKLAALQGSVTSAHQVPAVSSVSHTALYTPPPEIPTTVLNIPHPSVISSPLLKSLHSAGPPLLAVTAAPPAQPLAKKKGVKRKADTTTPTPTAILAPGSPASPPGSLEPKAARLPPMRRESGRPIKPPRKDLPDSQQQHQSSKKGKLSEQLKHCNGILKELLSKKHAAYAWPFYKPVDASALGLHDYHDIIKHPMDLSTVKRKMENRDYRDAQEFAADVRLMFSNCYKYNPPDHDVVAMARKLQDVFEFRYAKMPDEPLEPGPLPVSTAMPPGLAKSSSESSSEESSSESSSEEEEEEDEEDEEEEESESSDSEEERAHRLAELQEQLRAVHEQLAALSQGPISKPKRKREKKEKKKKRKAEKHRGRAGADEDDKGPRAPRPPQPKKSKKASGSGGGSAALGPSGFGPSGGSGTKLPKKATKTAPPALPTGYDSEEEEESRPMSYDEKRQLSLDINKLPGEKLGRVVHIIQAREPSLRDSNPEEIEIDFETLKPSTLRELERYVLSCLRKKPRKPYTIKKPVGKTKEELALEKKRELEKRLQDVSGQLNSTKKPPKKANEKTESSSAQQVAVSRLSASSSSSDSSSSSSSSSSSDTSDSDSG
Compound,GI50 (Jurkat cells),"Relative cell viability (%) (Jurkat cells; 10 nM, 0.01 µM)","Relative cell viability (%) (Jurkat cells; 30 nM, 0.03 µM)","Relative cell viability (%) (Jurkat cells; 100 nM, 0.1 µM)","Relative cell viability (%) (Jurkat cells; 300 nM, 0.3 µM)","Relative cell viability (%) (Jurkat cells; 1000 nM, 1 µM)","Relative cell viability (%) (Jurkat cells; 3000 nM, 3 µM)","Relative cell viability (%) (Jurkat cells; 10000 nM, 10 µM)","Relative cell viability (%) (Jurkat cells; 30000 nM, 30 µM)",Cell viability (%) relative to DMSO (Jurkat cells; concentration 10 nmol/L),Cell viability (%) relative to DMSO (Jurkat cells; concentration 30 nmol/L),Cell viability (%) relative to DMSO (Jurkat cells; concentration 100 nmol/L),Cell viability (%) relative to DMSO (Jurkat cells; concentration 300 nmol/L),Cell viability (%) relative to DMSO (Jurkat cells; concentration 1000 nmol/L),Cell viability (%) relative to DMSO (Jurkat cells; concentration 3000 nmol/L),Cell viability (%) relative to DMSO (Jurkat cells; concentration 10000 nmol/L),Cell viability (%) relative to DMSO (Jurkat cells; concentration 30000 nmol/L),"viability at 72 h, 10 nmol/L [1, 4]","viability at 72 h, 100 nmol/L [1, 4]","viability at 72 h, 300 nmol/L [1, 4]",further results
Cc1sc2c(c1C)C(c1ccc(Cl)cc1)=NC(CC(=O)NCCOCCOCCOCCOc1c(Br)cc(CC3C(=O)Nc4ccc(Br)cc43)cc1Br)c1nnc(C)n1-2 (stereo not drawn) [Compound 17],1000 to 1200 nM,113.554% and 104.708%,107.162% and 119.822% and 97.6289%,93.2408% and 94.967%,80.2996% and 90.3554% and 69.1714%,51.0815% and 43.0724%,24.9133% and 20.9046%,-0.06982% and 0.1224% and 1.03%,-0.1785% and -0.1531% and -0.21%,97.5079% and 115.29%,100.694% and 103.862%,98.8981% and 102.192%,95.2575% and 90.332%,81.9098% and 92.9141%,61.001% and 70.9093%,25.3619% and 36.1626%,28.6334% and 13.2236% and 16.0233%,104%,100%,92.8%,"viability at 72 h, 30 nmol/L ([1]; concentration 30 nmol/L, individual replicates, Supplementary Fig. 7g, read-out: Cell viability (%) relative to DMSO): 101%; viability at 72 h, 1000 nmol/L [1, 4]: 80.1%; viability at 72 h, 3000 nmol/L [1, 4]: 58.9%; viability at 72 h, 10000 nmol/L [1, 4]: 38.2%; viability at 72 h, 0.01 µM [1, 5]: 120%; viability at 72 h, 0.1 µM [1, 5]: 104%; viability at 72 h, 1 µM [1, 5]: 54.7%; viability at 72 h, 3 µM [1, 5]: 23%; Caspase 3/7 activity (fold change) (caspase-3/7 activity; 0.3 μM): 1.197 fold change and 0.791 fold change and 0.9918 fold change; Caspase 3/7 activity (fold change) (caspase-3/7 activity; 1 μM): 1.23 fold change and 0.8887 fold change and 1.1561 fold change; BRD2 degradation in KBM7 cells (BRD2 [2]): did not induce degradation of BRD2"
Cc1sc2c(c1C)C(c1ccc(Cl)cc1)=NC(CC(=O)NCCOCCOCCOCCOCCNC(=O)COc1c(Br)cc(CC3C(=O)Nc4ccc(Br)cc43)cc1Br)c1nnc(C)n1-2 (stereo not drawn) [Compound 16],1000 to 1200 nM,112.636% and 96.9495%,115.001% and 96.0444%,99.9011% and 81.8303%,80.1727% and 96.1576% and 71.4791%,60.9647% and 43.3109%,18.6473% and 16.4385%,-0.2254% and 0.02364% and 0.3624%,-0.3131% and -0.2888% and -0.253%,99.6715% and 109.515%,97.9616% and 103.22% and 119.751%,100.592% and 111.273%,96.8221% and 108.638%,85.5266% and 95.8957%,59.9059% and 72.5452%,8.512% and 16.0463%,-0.0717% and -0.2673% and -0.08298%,95.2%,99.6%,96.7%,"BRD2 depletion by In-Cell Western (BRD2 [3]): did not induce in cellulo degradation; viability at 72 h, 1000 nmol/L [1, 4]: 82.7%; viability at 72 h, 3000 nmol/L [1, 4]: 60%; viability at 72 h, 10000 nmol/L [1, 4]: 8.63%; viability at 72 h, 0.01 µM [1, 5]: 97.2%; viability at 72 h, 0.03 µM ([1]; 72 h, 30 nM, Fig. 4k, read-out: Relative cell viability (%)): 102%; viability at 72 h, 0.1 µM [1, 5]: 92.6%; viability at 72 h, 1 µM [1, 5]: 49.7%; viability at 72 h, 3 µM [1, 5]: 16.6%; Caspase 3/7 activity (fold change) (caspase-3/7 activity; 0.3 μM): 1.231 fold change and 1.654 fold change and 1.232 fold change; Caspase 3/7 activity (fold change) (caspase-3/7 activity; 1 μM): 1.2 fold change and 1.194 fold change and 1.182 fold change; BRD2 degradation in KBM7 cells (BRD2 [2]): did not induce degradation of BRD2"
